Source: patent publication US12642270B2, “Substituted thiophene carboxamides, thiophene carboxylic acids and derivatives thereof” (Bayer Aktiengesellschaft, priority 2019, dated 2026)

Assay: Log P by HPLC on reversed phase columns (EEC directive 79/831 Annex V.A8)
Assay type: physicochemical
Details: method [a]
Outline: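 Values come from retention times calibrated against alkan-2-ones (3–16 carbons) by linear interpolation, using reversed-phase LC-UV per EEC directive 79/831 Annex V.A8. Acetonitrile gradient 10–95% with 0.1% formic acid [a], 0.001 M ammonium acetate [b] or 0.1% phosphoric acid [c]; several values within one method separated by "+".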

Row | LogP | Compound
1 | 3.26^[a] | COC(=O)C(CCSC)NC(=O)c1sc(C#N)c(Cl)c1Cl (stereo not drawn) [1.0791]
2 | 2.80^[a] | CCOC(=O)C(COC)NC(=O)c1sc(C#N)c(Br)c1C (stereo not drawn) [1.0792]
3 | 2.54^[a] | CCOC(=O)CNC(=O)c1sc(C)c(Cl)c1F [1.0793]
4 | 3.51^[a] | CCOC(=O)C(CCSC)NC(=O)c1sc(Br)c(Br)c1C#N (stereo not drawn) [1.0794]
5 | 3.59^[a] | CCOC(=O)C1(NC(=O)c2sc(Br)c(Br)c2F)CSC1 [1.0795]
6 | 1.48^[a] | N#Cc1sc(C(=O)NCC(N)=O)c(Cl)c1Cl [1.0796]
7 | 2.59^[a] | CCOC(=O)CNC(=O)c1sc(Br)c(Br)c1C#N [1.0797]
8 | 2.24^[a] | COC(=O)CNC(=O)c1sc(Br)c(Br)c1C#N [1.0798]
9 | 2.73^[a] | CCOC(=O)C1(NC(=O)c2sc(Br)c(Br)c2C#N)CC1 [1.0799]
10 | 2.40^[a] | COC(=O)C1(NC(=O)c2sc(Br)c(Br)c2C#N)CC1 [1.0800]
11 | 2.81^[a] | COC(=O)C(C)(C)NC(=O)c1sc(Br)c(Br)c1C#N [1.0801]
12 | 2.11^[a] | N#CCNC(=O)c1sc(Br)c(Br)c1C#N [1.0802]
13 | 2.29^[a] | CCOC(=O)C(CO)NC(=O)c1sc(Br)c(Br)c1C#N (stereo not drawn) [1.0803]
14 | 3.67^[a] | CCOC(=O)CN(OC)C(=O)c1sc(Br)c(Br)c1Cl [1.0804]
15 | 3.39^[a] | CCOC(=O)C(NC(=O)c1sc(Br)c(Br)c1C#N)C(=O)OCC [1.0805]
16 | 2.87^[a] | COC(=O)C1(NC(=O)c2sc(Br)c(Br)c2C#N)CCC1 [1.0806]
17 | 1.71^[a] | N#Cc1c(C(=O)NC2(C(N)=O)CC2)sc(Cl)c1Cl [1.0807]
18 | 2.33^[a] | CCOC(=O)C(CO)NC(=O)c1sc(C#N)c(Cl)c1Cl (stereo not drawn) [1.0809]

Row | LogP | Compound
19 | 2.23^[a] | CCOC(=O)C(CO)NC(=O)c1sc(Cl)c(Cl)c1C#N (stereo not drawn) [1.0810]
20 | 4.05^[a] | CCOC(=O)C(CCSC)NC(=O)c1sc(Br)c(Br)c1F (stereo not drawn) [1.0812]
21 | 3.60^[a] | CCOC(=O)C(CCSC)NC(=O)c1sc(C#N)c(Cl)c1Cl (stereo not drawn) [1.0813]
22 | 3.46^[a] | CCOC(=O)C(CCSC)NC(=O)c1sc(Cl)c(Cl)c1C#N (stereo not drawn) [1.0814]
23 | 3.23^[a] | CCOC(=O)C1(NC(=O)c2sc(Br)c(Br)c2C#N)CCC1 [1.0815]
24 | 2.84^[a] | CCOC(=O)[C@H](CO)NC(=O)c1sc(Cl)c(Cl)c1Br [1.0816]
25 | 2.84^[a] | CCOC(=O)[C@H](CO)NC(=O)c1sc(Br)c(Br)c1Cl [1.0817]
26 | 2.80^[a] | CCOC(=O)C(C)NC(=O)c1sc(C#N)c(Br)c1C (stereo not drawn) [1.0823]
27 | 4.01^[a] | CCOC(=O)C(C)NC(=O)c1sc(Br)c(Br)c1Cl (stereo not drawn) [1.0824]
28 | 2.82^[a] | COC(=O)CNC(=O)c1sc(I)c(Cl)c1Cl [1.0826]
29 | 3.24^[a] | CCOC(=O)CNC(=O)c1sc(I)c(Cl)c1Cl [1.0827]
30 | 3.01^[a] | COC(=O)C1(NC(=O)c2sc(I)c(Cl)c2Cl)CC1 [1.0828]
31 | 2.22^[a] | CCOC(=O)[C@H](CO)NC(=O)c1sc(Cl)c(Cl)c1C#N [1.0830]
32 | 2.26^[a] | CCOC(=O)[C@H](CO)NC(=O)c1sc(C#N)c(Cl)c1Cl [1.0831]
33 | 2.54^[a] | CCOC(=O)[C@H](CO)NC(=O)c1sc(Br)c(Br)c1F [1.0832]
34 | 2.07^[a] | CCOC(=O)[C@H](CO)NC(=O)c1sc(C#N)c(Cl)c1C [1.0833]
35 | 2.16^[a] | CCOC(=O)C(CO)NC(=O)c1sc(C#N)c(Br)c1C (stereo not drawn) [1.0834]

Same assay, conditions: method marked [a]

Row | LogP | Compound
36 | 3.70^[a] | CCOC(=O)C1(NC(=O)c2cc(Br)c(C(F)(F)F)s2)CCC1 [1.0723]
37 | 2.61^[a] | N#CCNC(=O)c1cc(Br)c(C(F)(F)F)s1 [1.0724]
38 | 4.37^[a] | Cc1c(C(=O)NC2(C(=O)OC3CCC3)CCC2)sc(Cl)c1Br [1.0725]
39 | 3.22^[a] | CCOC(=O)C1(NC(=O)c2cc(Br)c(C(F)(F)F)s2)CC1 [1.0726]
40 | 3.95^[a] | CCOC(=O)C1(NC(=O)c2sc(Cl)c(Cl)c2Br)CSC1 [1.0727]
41 | 3.97^[a] | CCOC(=O)C1(NC(=O)c2sc(Br)c(Br)c2Cl)CSC1 [1.0728]
42 | 3.03^[a] | COC(=O)[C@H](CCSC)NC(=O)c1sc(C#N)c(Br)c1C [1.0729]
43 | 2.97^[a] | COC(=O)[C@H](CCSC)NC(=O)c1sc(C#N)c(Cl)c1C [1.0730]
44 | 2.62^[a] | CCOC(=O)C(CO)NC(=O)c1sc(C#N)c(Br)c1Br (stereo not drawn) [1.0731]
45 | 3.81^[a] | CCOC(=O)C(CCSC)NC(=O)c1sc(C#N)c(Br)c1Br (stereo not drawn) [1.0732]
46 | 3.23^[a] | COC(=O)C(CCSC)NC(=O)c1sc(C#N)c(Br)c1Br (stereo not drawn) [1.0733]
47 | 3.40^[a] | COC(=O)[C@H](CCSC)NC(=O)c1sc(C#N)c(Br)c1Br [1.0734]
48 | 3.63^[a] | COC(=O)C(CCSC)NC(=O)c1sc(Cl)c(Br)c1C (stereo not drawn) [1.0735]
49 | 4.02^[a] | CCOC(=O)[C@H](CCSC)NC(=O)c1sc(Cl)c(Br)c1C [1.0736]
50 | 1.81^[a] | CNC(=O)CNC(=O)c1sc(Br)c(Br)c1F [1.0737]
51 | 2.08^[a] | CNC(=O)CNC(=O)c1sc(Cl)c(Cl)c1Br [1.0738]
52 | 2.75^[a] | CCOC(=O)CNC(=O)c1sc(C#N)c(Br)c1Br [1.0739]
53 | 3.02^[a] | CCOC(=O)C1(NC(=O)c2sc(C#N)c(Br)c2Br)CC1 [1.0740]
54 | 3.34^[a] | CCOC(=O)C(C#N)NC(=O)c1sc(Br)c(Br)c1Cl (stereo not drawn) [1.0741]
55 | 2.66^[a] | CCOC(=O)C(C#N)NC(=O)c1sc(C#N)c(Br)c1C (stereo not drawn) [1.0742]
56 | 3.35^[a] | CCOC(=O)C(C#N)NC(=O)c1sc(Cl)c(Cl)c1Br (stereo not drawn) [1.0743]
57 | 3.38^[a] | CCOC(=O)C(C#N)NC(=O)c1sc(Cl)c(Br)c1Br (stereo not drawn) [1.0744]

Row | LogP | Compound
58 | 2.50^[a] | N#CCNC(=O)c1sc(Cl)c(Cl)c1C(F)F [1.0745]
59 | 3.55^[a] | CCOC(=O)C(C)(C)NC(=O)c1sc(Cl)c(Cl)c1C(F)F [1.0746]
60 | 3.00^[a] | COC(=O)C(NC(=O)c1sc(Cl)c(Cl)c1C(F)F)C(=O)OC [1.0748]
61 | 3.23^[a] | CCOC(=O)CN(OC)C(=O)c1sc(C#N)c(Br)c1C [1.0749]
62 | 4.04^[a] | COC(=O)[C@H](CCSC)NC(=O)c1sc(Br)c(Br)c1Cl [1.0750]
63 | 3.06^[a] | COC(=O)C(CCSC)NC(=O)c1sc(C#N)c(Br)c1C (stereo not drawn) [1.0751]
64 | 3.54^[a] | CCOC(=O)C(CSC)NC(=O)c1sc(C#N)c(Cl)c1Cl (stereo not drawn) [1.0752]
65 | 3.97^[a] | CCOC(=O)C(CSC)NC(=O)c1sc(Cl)c(Br)c1C (stereo not drawn) [1.0753]
66 | 3.37^[a] | CCOC(=O)C(CSC)NC(=O)c1sc(Cl)c(Cl)c1C#N (stereo not drawn) [1.0754]
67 | 3.40^[a] | CCOC(=O)C(CSC)NC(=O)c1sc(Br)c(Br)c1C#N (stereo not drawn) [1.0755]
68 | 3.94^[a] | CCOC(=O)C(CSC)NC(=O)c1sc(Br)c(Cl)c1C (stereo not drawn) [1.0756]
69 | 4.89^[a] | CC(C)(C)OC(=O)C1(NC(=O)c2sc(Br)c(Br)c2Cl)CC(F)(F)C1 [1.0757]
70 | 3.23^[a] | CCOC(=O)C(C#N)NC(=O)c1sc(Cl)c(Cl)c1C (stereo not drawn) [1.0758]
71 | 3.64^[a] | COC(=O)C(CCSC)NC(=O)c1sc(Br)c(Cl)c1C (stereo not drawn) [1.0759]
72 | 3.66^[a] | CCOC(=O)C(C)(C)NC(=O)c1sc(Cl)c(Br)c1C [1.0760]
73 | 3.71^[a] | CCOC(=O)C(C)(C)NC(=O)c1sc(Br)c(Cl)c1C [1.0764]
74 | 4.01^[a] | CCOC(=O)[C@H](CCSC)NC(=O)c1sc(Br)c(Cl)c1C [1.0765]
75 | 4.04^[a] | COC(=O)C(CCSC)NC(=O)c1sc(Br)c(Br)c1Cl (stereo not drawn) [1.0766]
76 | 3.74^[a] | COC(=O)[C@H](CCSC)NC(=O)c1sc(Cl)c(Br)c1C [1.0767]
77 | 3.60^[a] | COC(=O)[C@H](CCSC)NC(=O)c1sc(Br)c(Cl)c1C [1.0768]
78 | 3.26^[a] | CCOC(=O)C(CSC)NC(=O)c1sc(C#N)c(Br)c1C (stereo not drawn) [1.0769]
79 | 3.14^[a] | COC(=O)C(CCSC)NC(=O)c1sc(Cl)c(Cl)c1C#N (stereo not drawn) [1.0770]

Row | LogP | Compound
80 | 3.20^[a] | CCOC(=O)C(NC(=O)c1sc(C#N)c(Cl)c1C)C(=O)OCC [1.0771]
81 | 3.91^[a] | CCOC(=O)C(NC(=O)c1sc(Br)c(Br)c1F)C(=O)OCC [1.0772]
82 | 3.23^[a] | CCOC(=O)C(NC(=O)c1sc(C#N)c(Br)c1C)C(=O)OCC [1.0773]
83 | 3.40^[a] | CCOC(=O)C(NC(=O)c1sc(Cl)c(Cl)c1C#N)C(=O)OCC [1.0774]
84 | 4.30^[a] | CCOC(=O)C(NC(=O)c1sc(Cl)c(Cl)c1Br)C(=O)OCC [1.0775]
85 | 3.91^[a] | CCOC(=O)C(COC)NC(=O)c1sc(Br)c(Br)c1Cl (stereo not drawn) [1.0776]
86 | 3.94^[a] | CCOC(=O)C(COC)NC(=O)c1sc(Cl)c(Cl)c1Br (stereo not drawn) [1.0777]
87 | 3.37^[a] | COC(=O)C(CCSC)NC(=O)c1sc(Br)c(Br)c1C#N (stereo not drawn) [1.0778]
88 | 2.89^[a] | CCOC(=O)C(CO)NC(=O)c1sc(Br)c(Br)c1Cl (stereo not drawn) [1.0779]
89 | 3.06^[a] | CCOC(=O)C(CO)NC(=O)c1sc(Cl)c(Cl)c1Br (stereo not drawn) [1.0780]
90 | 3.40^[a] | CCOC(=O)CNC(=O)c1sc(Br)c(Cl)c1Br [1.0781]
91 | 3.56^[a] | CCOC(=O)C1(NC(=O)c2sc(Br)c(Cl)c2Br)CC1 [1.0782]
92 | 4.33^[a] | CCOC(=O)C(NC(=O)c1sc(Br)c(Br)c1Cl)C(=O)OCC [1.0783]
93 | 2.73^[a] | C#CCOC(=O)C1(NC(=O)c2sc(C#N)c(Cl)c2Cl)CC1 [1.0784]
94 | 2.65^[a] | C#CCOC(=O)C1(NC(=O)c2sc(Cl)c(Cl)c2C#N)CC1 [1.0785]
95 | 2.08^[a] | NC(=O)C1(NC(=O)c2sc(Cl)c(Cl)c2Br)CC1 [1.0786]
96 | 2.10^[a] | NC(=O)C1(NC(=O)c2sc(Br)c(Br)c2Cl)CC1 [1.0787]
97 | 1.67^[a] | N#Cc1sc(C(=O)NC2(C(N)=O)CC2)c(Cl)c1Cl [1.0788]
98 | 1.61^[a] | Cc1c(C(=O)NC2(C(N)=O)CC2)sc(C#N)c1Br [1.0789]
99 | 3.71^[a] | CCOC(=O)CN(OC)C(=O)c1sc(Cl)c(Cl)c1Br [1.0790]
